Compound: C[C@@H](Oc1cc(-c2cnn(C3CCNCC3)c2)cnc1N)c1c(Cl)ccc(F)c1Cl [Crizotinib] + Nc1ncn([C@H]2C[C@H](O)[C@@H](CO)O2)c(=O)n1 [Decitabine] (partner 2 µM)
Assay: relative viability (nuclei count vs DMSO), 5 days (fraction); higher = more cells survive
Details: first compound 1 µM
Method in brief: (§1)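 Relative viability equals treated-well nuclei counts divided by vehicle-well nuclei counts. Counts came from 4× images of lung cancer cell lines grown in 1536-well plates for 5 days after pin-tool dosing on the day after seeding. Dosing used one drug alone or a fixed anchor-drug dose plus five library-drug doses (not always all listed) in √10 steps, and values are medians of duplicate plates.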

Cell Line | relative viability
NCI-H1651 | 0.591
NCI-H1666 | 0.673
NCI-H1734 | 0.493
NCI-H1755 | 0.661
NCI-H1792 | 0.514
NCI-H1915 | 0.26
NCI-H1944 | 0.45
NCI-H1975 | 0.39
NCI-H1993 | 0.602
NCI-H2009 | 0.392
NCI-H2023 | 0.255
NCI-H2085 | 0.595
NCI-H2087 | 0.274
NCI-H2126 | 0.591
NCI-H2170 | 0.471
NCI-H2347 | 0.661

Compound: C[C@@H](Oc1cc(-c2cnn(C3CCNCC3)c2)cnc1N)c1c(Cl)ccc(F)c1Cl [Crizotinib] + O=C(c1cc(Cc2n[nH]c(=O)c3ccccc23)ccc1F)N1CCN(C(=O)C2CC2)CC1 [Olaparib] (partner 8 µM)
Assay: as above
Details: first compound 0.01 µM
Method in brief: as §1

Cell Line | relative viability
LXF-289 | 0.994
NCI-H23 | 0.317
NCI-H358 | 0.634
NCI-H441 | 0.595
NCI-H460 | 0.463
NCI-H520 | 0.285
NCI-H522 | 0.658
NCI-H596 | 0.698
NCI-H647 | 0.444
NCI-H650 | 0.481
NCI-H661 | 0.703
NCI-H838 | 0.712
NCI-H1355 | 0.714
NCI-H1395 | 0.458
NCI-H1437 | 0.625
NCI-H1650 | 0.619
NCI-H1651 | 0.183

Cell Line | relative viability
NCI-H1666 | 0.711
NCI-H1734 | 0.63
NCI-H1755 | 0.779
NCI-H1792 | 0.505
NCI-H1915 | 0.228
NCI-H1944 | 0.414
NCI-H1975 | 0.806
NCI-H1993 | 0.919
NCI-H2009 | 0.666
NCI-H2023 | 0.449
NCI-H2085 | 0.737
NCI-H2087 | 0.614
NCI-H2126 | 0.81
NCI-H2170 | 0.558
NCI-H2342 | 0.427
NCI-H2347 | 0.584

Same assay, conditions: first compound 0.03162 µM

Cell Line | relative viability
LXF-289 | 1.12
NCI-H23 | 0.271
NCI-H322M | 0.839
NCI-H358 | 0.599
NCI-H441 | 0.444
NCI-H460 | 0.457
NCI-H520 | 0.35
NCI-H522 | 0.585
NCI-H596 | 0.675
NCI-H647 | 0.68
NCI-H650 | 0.465
NCI-H661 | 0.761
NCI-H838 | 0.763
NCI-H1355 | 0.715
NCI-H1395 | 0.452
NCI-H1437 | 0.608
NCI-H1650 | 0.801

Cell Line | relative viability
NCI-H1651 | 0.2
NCI-H1666 | 0.788
NCI-H1734 | 0.574
NCI-H1755 | 0.867
NCI-H1792 | 0.458
NCI-H1915 | 0.257
NCI-H1944 | 0.423
NCI-H1975 | 0.743
NCI-H1993 | 0.948
NCI-H2009 | 0.712
NCI-H2023 | 0.498
NCI-H2085 | 0.74
NCI-H2087 | 0.59
NCI-H2126 | 0.936
NCI-H2170 | 0.625
NCI-H2342 | 0.406
NCI-H2347 | 0.57

Same assay, conditions: first compound 0.1 µM

Cell Line | relative viability
LXF-289 | 1.15
NCI-H23 | 0.317
NCI-H322M | 0.746
NCI-H358 | 0.54
NCI-H441 | 0.583
NCI-H460 | 0.455
NCI-H520 | 0.408
NCI-H522 | 0.736
NCI-H596 | 0.695
NCI-H647 | 0.564
NCI-H650 | 0.396
NCI-H661 | 0.741
NCI-H838 | 0.78
NCI-H1355 | 0.797
NCI-H1395 | 0.5
NCI-H1437 | 0.627
NCI-H1650 | 0.71

Cell Line | relative viability
NCI-H1651 | 0.185
NCI-H1666 | 0.819
NCI-H1734 | 0.624
NCI-H1755 | 0.854
NCI-H1792 | 0.378
NCI-H1915 | 0.259
NCI-H1944 | 0.378
NCI-H1975 | 0.794
NCI-H2009 | 0.697
NCI-H2023 | 0.521
NCI-H2085 | 0.755
NCI-H2087 | 0.595
NCI-H2126 | 0.952
NCI-H2170 | 0.642
NCI-H2342 | 0.429
NCI-H2347 | 0.568

Same assay, conditions: first compound 0.3162 µM

Cell Line | relative viability
LXF-289 | 0.993
NCI-H322M | 0.658
NCI-H358 | 0.561
NCI-H441 | 0.517
NCI-H520 | 0.301
NCI-H522 | 0.747
NCI-H596 | 0.642
NCI-H647 | 0.505
NCI-H661 | 0.81
NCI-H838 | 0.712
NCI-H1355 | 0.622
NCI-H1395 | 0.487
NCI-H1437 | 0.651
NCI-H1650 | 0.779
NCI-H1651 | 0.173
NCI-H1666 | 0.695
NCI-H1755 | 0.923
NCI-H1915 | 0.222
NCI-H1944 | 0.424
NCI-H1975 | 0.749
NCI-H1993 | 0.924
NCI-H2009 | 0.685
NCI-H2023 | 0.408
NCI-H2085 | 0.752
NCI-H2087 | 0.397
NCI-H2126 | 0.897
NCI-H2170 | 0.558
NCI-H2342 | 0.418
NCI-H2347 | 0.554

Same assay, conditions: first compound 1 µM

Cell Line | relative viability
LXF-289 | 1.11
NCI-H23 | 0.388
NCI-H322M | 0.777
NCI-H358 | 0.582
NCI-H441 | 0.587
NCI-H460 | 0.423
NCI-H520 | 0.349
NCI-H522 | 0.604
NCI-H596 | 0.671
NCI-H647 | 0.597
NCI-H650 | 0.346
NCI-H661 | 0.737
NCI-H838 | 0.726
NCI-H1355 | 0.728
NCI-H1395 | 0.428
NCI-H1437 | 0.66
NCI-H1650 | 0.722

Cell Line | relative viability
NCI-H1651 | 0.194
NCI-H1666 | 0.771
NCI-H1734 | 0.608
NCI-H1755 | 0.827
NCI-H1792 | 0.37
NCI-H1915 | 0.26
NCI-H1944 | 0.461
NCI-H1975 | 0.774
NCI-H1993 | 0.9
NCI-H2009 | 0.741
NCI-H2023 | 0.451
NCI-H2085 | 0.823
NCI-H2087 | 0.716
NCI-H2126 | 0.907
NCI-H2170 | 0.62
NCI-H2342 | 0.435
NCI-H2347 | 0.578

Compound: O=C(c1cc(Cc2n[nH]c(=O)c3ccccc23)ccc1F)N1CCN(C(=O)C2CC2)CC1 [Olaparib] + Nc1nc2[nH]cc(CCc3ccc(C(=O)N[C@@H](CCC(=O)O)C(=O)O)cc3)c2c(=O)[nH]1 [Pemetrexed] (partner 0.2 µM)
Assay: as above
Details: first compound 0.08 µM
Method in brief: as §1

Cell Line | relative viability
LXF-289 | 1
NCI-H23 | 0.756
NCI-H322M | 0.607
NCI-H358 | 0.159
NCI-H441 | 0.28
NCI-H460 | 0.055
NCI-H520 | 0.866
NCI-H522 | 1.05
NCI-H596 | 0.592
NCI-H647 | 0.193
NCI-H650 | 0.912
NCI-H661 | 0.954
NCI-H838 | 0.25
NCI-H1355 | 1.04
NCI-H1395 | 0.8
NCI-H1437 | 0.345
NCI-H1650 | 0.393

Cell Line | relative viability
NCI-H1651 | 0.624
NCI-H1666 | 0.945
NCI-H1734 | 0.417
NCI-H1755 | 0.447
NCI-H1792 | 0.86
NCI-H1915 | 0.553
NCI-H1944 | 0.639
NCI-H1975 | 0.304
NCI-H1993 | 0.622
NCI-H2009 | 1.15
NCI-H2023 | 0.215
NCI-H2085 | 0.971
NCI-H2087 | 0.74
NCI-H2126 | 0.743
NCI-H2170 | 0.259
NCI-H2342 | 0.806
NCI-H2347 | 0.474

Same assay, conditions: first compound 0.253 µM

Cell Line | relative viability
LXF-289 | 0.883
NCI-H23 | 0.614
NCI-H322M | 0.608
NCI-H358 | 0.172
NCI-H441 | 0.279
NCI-H460 | 0.0542
NCI-H520 | 0.646
NCI-H522 | 0.931
NCI-H596 | 0.496
NCI-H647 | 0.156
NCI-H650 | 0.901
NCI-H661 | 0.871
NCI-H838 | 0.226
NCI-H1355 | 1.01
NCI-H1395 | 0.565
NCI-H1437 | 0.3
NCI-H1650 | 0.329

Cell Line | relative viability
NCI-H1651 | 0.586
NCI-H1666 | 0.772
NCI-H1734 | 0.398
NCI-H1755 | 0.68
NCI-H1792 | 0.547
NCI-H1915 | 0.493
NCI-H1944 | 0.529
NCI-H1975 | 0.265
NCI-H1993 | 0.658
NCI-H2009 | 1.03
NCI-H2023 | 0.231
NCI-H2085 | 0.755
NCI-H2087 | 0.591
NCI-H2126 | 0.649
NCI-H2170 | 0.331
NCI-H2342 | 0.751
NCI-H2347 | 0.476

Same assay, conditions: first compound 2.53 µM

Cell Line | relative viability
LXF-289 | 0.963
NCI-H23 | 0.654
NCI-H322M | 0.619
NCI-H358 | 0.176
NCI-H441 | 0.287
NCI-H460 | 0.0654
NCI-H520 | 0.604
NCI-H522 | 0.833
NCI-H596 | 0.493
NCI-H647 | 0.138
NCI-H650 | 0.871
NCI-H661 | 0.901
NCI-H838 | 0.239
NCI-H1355 | 1.05
NCI-H1395 | 0.564
NCI-H1437 | 0.32
NCI-H1650 | 0.314

Cell Line | relative viability
NCI-H1651 | 0.553
NCI-H1666 | 0.856
NCI-H1734 | 0.387
NCI-H1755 | 0.419
NCI-H1792 | 0.605
NCI-H1915 | 0.511
NCI-H1944 | 0.496
NCI-H1975 | 0.303
NCI-H1993 | 0.627
NCI-H2009 | 1.01
NCI-H2023 | 0.241
NCI-H2085 | 0.871
NCI-H2087 | 0.596
NCI-H2126 | 0.663
NCI-H2170 | 0.265
NCI-H2342 | 0.753
NCI-H2347 | 0.435

Same assay, conditions: first compound 8 µM

Cell Line | relative viability
LXF-289 | 1
NCI-H23 | 0.473
NCI-H322M | 0.544
NCI-H358 | 0.152
NCI-H441 | 0.239
NCI-H460 | 0.0663
NCI-H520 | 0.458
NCI-H522 | 1.04
NCI-H596 | 0.543
NCI-H647 | 0.15
NCI-H650 | 0.776
NCI-H661 | 0.795
NCI-H838 | 0.246
NCI-H1355 | 1.08
NCI-H1395 | 0.497
NCI-H1437 | 0.325
NCI-H1650 | 0.366

Cell Line | relative viability
NCI-H1651 | 0.334
NCI-H1666 | 0.822
NCI-H1734 | 0.362
NCI-H1755 | 0.396
NCI-H1792 | 0.398
NCI-H1915 | 0.419
NCI-H1944 | 0.561
NCI-H1975 | 0.275
NCI-H1993 | 0.556
NCI-H2009 | 0.842
NCI-H2023 | 0.156
NCI-H2085 | 0.852
NCI-H2087 | 0.556
NCI-H2126 | 0.681
NCI-H2170 | 0.245
NCI-H2342 | 0.761
NCI-H2347 | 0.397
